# Results published in paper PMC12280925, “Structure-based discovery of positive allosteric modulators of the A1 adenosine receptor” (Proceedings of the National Academy of Sciences of the …, 2025).
# Changes are numbered by the printed parent chain. Where two headings read alike, the source gives them in different places.
# Assays:
# [1] = system: A1R-mediated rat atrial beat rate; assay: Isolated rat atria: NECA-mediated decrease in contractile rate; conditions: approximate, read-out: potency (EC50) for inhibition in rat atrial beat rate
# Procedure: Isolated rat atrial experiments were performed as previously described ([53]). Briefly, 10 to 16 wk old male Sprague Dawley rats were anesthetized with xylazine/ketamine and the chest cavity of the rat was opened to fully expose the heart, which was rapidly removed and placed in Krebs–Henseleit solution. The heart was cut transversely below the right and left atria to remove the ventricles, and the remaining […] were trimmed carefully. Atria was then mounted in an organ bath at 37 °C, bubbled with 5% CO2/95% O2, and allowed to contract spontaneously. The rate of atrial contraction was measured using a force transducer connected to a PowerLab data acquisition system. […] All experiments involving animals were approved by the Monash Institute of Pharmaceutical Sciences Animal Ethics Committee under project number 20213.
# A1R (A1R-FlpInCHO cells) [2] = target: T1, A1R (A1R-FlpInCHO cells) (Homo sapiens, UniProt P30542); assay: Whole-cell [3H]DPCPX competition binding: NECA affinity in absence or presence of compound; conditions: 30 μM compound; for effect on NECA affinity (pKI): [3H]DPCPX competition binding, A1R-FlpINCHO cells; for effect on [3H]DPCPX binding (1 nM): absence of orthosteric agonist
# T1 sequence (P30542 1-326): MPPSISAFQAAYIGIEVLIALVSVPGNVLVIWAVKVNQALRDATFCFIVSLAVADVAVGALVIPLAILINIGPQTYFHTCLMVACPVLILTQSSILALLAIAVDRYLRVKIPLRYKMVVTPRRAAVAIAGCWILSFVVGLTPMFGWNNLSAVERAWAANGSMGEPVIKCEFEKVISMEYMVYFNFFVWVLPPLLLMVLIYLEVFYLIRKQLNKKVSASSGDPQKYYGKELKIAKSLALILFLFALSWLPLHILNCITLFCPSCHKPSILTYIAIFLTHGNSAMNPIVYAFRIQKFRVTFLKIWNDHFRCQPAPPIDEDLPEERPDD
# Procedure: [^3H]DPCPX (8-cyclopentyl-1,3-dipropylxanthine, [dipropyl-2,3-^3H(N)]) whole-cell binding assays were performed on FlpINCHO cells stably expressing either WT (nontagged or 3xHA-tagged) or mutant 3xHA-A1R. Cells were seeded into a transparent 96-well plate at 40,000 cells/well in DMEM containing 10% FBS. Following 8 h incubation in a humidified environment at 37 °C in 5% CO2, cells were washed and maintained in serum-free DMEM for approximately 18 h at 37 °C in 5% CO2. […] Assays were terminated by washing twice with 100 μL/well cold phosphate-buffered saline, followed by the addition of 100 μL OptiPhase Supermix™ scintillation cocktail and bound radioactivity measured using a MicroBeta^2 ™ plate counter (PerkinElmer).
# [^3H]DPCPX competition binding curves were fitted to a one-site inhibitory mass action equation:[1] Y=Bottom+Top-Bottom/1+10^X-LogIC50,
# The top and bottom represent the maximal and minimal binding in the presence of the competitive ligand, respectively. Equilibrium dissociation constant (KI) values were subsequently derived from inhibition binding experiments using the Cheng–Prusoff equation:[2] KI=IC50/1+A/KD.
# A1R (A1R-FlpInCHO cells) [3] = target: T1, A1R (A1R-FlpInCHO cells); assay: Inhibition of forskolin-stimulated cAMP accumulation: NECA potency ± compound and compound alone; assay type: cell-based; conditions: for effect on NECA potency (pEC50): 30 μM compound, inhibition of forskolin-stimulated cAMP accumulation; for allosteric agonism (functional response in the absence of NECA): 30 μM compound alone, 3 μM forskolin-stimulated cAMP accumulation
# Procedure: (§1) FlpInCHO cell lines and cortical neuron cells were seeded into transparent 96-well plates at 20,000 cells/well and incubated for 16 to 20 h in a humidified incubator at 37 °C in 5% CO2. […] Compounds were added at either a single concentration (10 or 30 μM) or a concentration range for full interaction studies (3 to 30 μM), and plates were incubated for 30 to 60 min at 37 °C in a humidified chamber. […] After 30 min incubation at 37 °C, the reaction was terminated by rapid removal of buffer and the addition of 50 μL/well cold ethanol. […] Agonist concentration–response curves were normalized to the response mediated by 3 µM forskolin […].
# Response=Basal+Emax-Basal×A/EC50+A,
# [4] = target: T2, A1R allosteric site (A1R-FlpINCHO cells, wild type) (Homo sapiens, UniProt P30542); assay: Whole-cell [3H]DPCPX interaction binding with NECA, allosteric ternary complex model; conditions: for binding cooperativity with NECA (logα): orthosteric agonist NECA
# T2 sequence (P30542 1-326): T1 sequence (P30542 1-326)
# Description: Equilibrium binding interaction experiments were fitted to the following allosteric ternary complex model.[3] Y=BmaxA/A+KAKB/αAB+KB1+[I]/KI+[B]/KB+αII[B]/KIKB,
# A cooperativity factor α > 1 describes positive cooperativity; a value 0 < α < 1 describes negative cooperativity, and a value of α = 1 describes neutral cooperativity.
# A1R (A1R-FlpInCHO cells) [5] = target: T1, A1R (A1R-FlpInCHO cells); assay: NECA/allosteric ligand interaction in cAMP accumulation, operational model of allosterism; assay type: cell-based; conditions: for allosteric ligand efficacy (logτB): allosteric agonism in cAMP; for functional cooperativity with NECA (logαβ): cAMP
# Procedure: as §1
# [5] E=EmτAAKB+αβ[B]+τB[B]KA^n/AKB+KAKB+[B]KA+α[A][B]^n+τAAKB+αβ[B]+τB[B]KA^n
# Orthosteric agonist and allosteric ligand affinity were constrained to values determined from radioligand binding.
# A1R S246^6.47A mutant = target: T3, A1R S246^6.47A mutant (Homo sapiens, UniProt P30542, S246A); assay: [3H]DPCPX interaction binding at mutant S246A-A1R-FlpINCHO
# T3 construct: expressed in transfected cells; host or cells: FlpInCHO cells, stably transfected
# T3 sequence (P30542 1-326 S246A): T1 sequence (P30542 1-326) with S246A
# A1R G279^7.44A mutant = target: T4, A1R G279^7.44A mutant (Homo sapiens, UniProt P30542, G279A); assay: [3H]DPCPX interaction binding at mutant G279A-A1R-FlpINCHO
# T4 construct: expressed in transfected cells; host or cells: FlpInCHO cells, stably transfected
# T4 sequence (P30542 1-326 G279A): T1 sequence (P30542 1-326) with G279A
# A2AR = target: T5, A2AR (Homo sapiens, UniProt P29274); assay: cAMP accumulation in A2AR FlpINCHO cells (selectivity); assay type: cell-based
# T5 construct: expressed in transfected cells; host or cells: FlpInCHO cells, stably transfected
# T5 sequence (P29274 whole entry): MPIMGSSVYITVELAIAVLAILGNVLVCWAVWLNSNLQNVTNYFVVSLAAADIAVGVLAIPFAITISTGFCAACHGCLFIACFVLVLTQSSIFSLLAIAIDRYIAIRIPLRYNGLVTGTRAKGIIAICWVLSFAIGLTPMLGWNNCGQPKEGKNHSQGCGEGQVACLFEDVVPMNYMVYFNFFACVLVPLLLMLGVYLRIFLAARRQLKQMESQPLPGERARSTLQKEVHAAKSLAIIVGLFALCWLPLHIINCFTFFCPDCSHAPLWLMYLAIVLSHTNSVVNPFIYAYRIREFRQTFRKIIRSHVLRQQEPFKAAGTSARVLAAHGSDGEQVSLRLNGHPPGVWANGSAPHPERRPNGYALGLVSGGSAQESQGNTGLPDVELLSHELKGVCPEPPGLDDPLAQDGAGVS
# A2BR = target: T6, A2BR (Homo sapiens, UniProt P29275); assay: cAMP accumulation in A2BR FlpINCHO cells (selectivity); assay type: cell-based
# T6 construct: expressed in transfected cells; host or cells: FlpInCHO cells, stably transfected
# T6 sequence (P29275 1-332): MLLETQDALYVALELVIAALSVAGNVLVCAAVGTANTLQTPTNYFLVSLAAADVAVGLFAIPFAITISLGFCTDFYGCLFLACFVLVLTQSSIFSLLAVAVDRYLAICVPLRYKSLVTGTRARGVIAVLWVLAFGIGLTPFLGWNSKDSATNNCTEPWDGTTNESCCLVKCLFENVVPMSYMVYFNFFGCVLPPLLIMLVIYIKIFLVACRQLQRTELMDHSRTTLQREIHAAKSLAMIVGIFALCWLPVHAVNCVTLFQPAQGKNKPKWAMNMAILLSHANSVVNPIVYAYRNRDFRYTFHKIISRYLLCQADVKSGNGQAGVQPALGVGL
# A3R = target: T7, A3R (Homo sapiens, UniProt P0DMS8); assay: cAMP accumulation in A3R FlpINCHO cells (selectivity); assay type: cell-based
# T7 construct: expressed in transfected cells; host or cells: FlpInCHO cells, stably transfected
# T7 sequence (P0DMS8 1-318): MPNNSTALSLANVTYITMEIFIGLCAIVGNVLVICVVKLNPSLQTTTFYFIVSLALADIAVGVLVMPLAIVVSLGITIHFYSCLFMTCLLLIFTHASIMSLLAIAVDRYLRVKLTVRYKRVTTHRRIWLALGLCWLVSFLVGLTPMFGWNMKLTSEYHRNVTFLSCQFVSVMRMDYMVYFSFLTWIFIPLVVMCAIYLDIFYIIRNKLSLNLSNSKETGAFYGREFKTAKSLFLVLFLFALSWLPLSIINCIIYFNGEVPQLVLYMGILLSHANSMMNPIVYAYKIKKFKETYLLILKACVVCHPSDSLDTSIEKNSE
# M2 receptor (M2R) = target: T8, M2 receptor (M2R) (Homo sapiens, UniProt P08172); assay: cAMP accumulation in M2 receptor FlpINCHO cells (selectivity); assay type: cell-based; conditions: acetylcholine as agonist
# T8 sequence (P08172 1-466): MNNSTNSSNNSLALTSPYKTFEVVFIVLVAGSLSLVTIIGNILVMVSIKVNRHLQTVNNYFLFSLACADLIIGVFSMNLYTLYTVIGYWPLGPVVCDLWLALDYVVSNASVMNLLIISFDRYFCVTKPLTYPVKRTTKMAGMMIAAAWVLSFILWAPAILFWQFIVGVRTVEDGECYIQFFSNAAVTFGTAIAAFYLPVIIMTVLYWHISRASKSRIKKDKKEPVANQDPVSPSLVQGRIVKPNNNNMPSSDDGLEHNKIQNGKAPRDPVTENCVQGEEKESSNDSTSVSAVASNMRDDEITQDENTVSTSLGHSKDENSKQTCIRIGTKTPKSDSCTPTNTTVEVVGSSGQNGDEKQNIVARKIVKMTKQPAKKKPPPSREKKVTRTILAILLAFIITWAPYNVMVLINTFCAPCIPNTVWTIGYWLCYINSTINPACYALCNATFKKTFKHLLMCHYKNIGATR
# [6] = system: nontransfected FlpINCHO cells; assay: cAMP accumulation in nontransfected FlpINCHO cells; assay type: cell-based, Chinese hamster; conditions: 10 µM compound
# [7] = allosteric ternary complex model
structure (smiles),measurement,setting,value
"CCNC(=O)[C@H]1O[C@@H](n2cnc3c(N)ncnc32)[C@H](O)[C@@H]1O [NECA, 5′-N-ethylcarboxamidoadenosine]",EC50,[1],~130 nM
CCCc1sc(N)nc1-c1ccc(C)cc1C [compound 2],effect on NECA affinity (pKI),A1R (A1R-FlpInCHO cells) [2],significantly enhanced
same,effect on NECA potency (pEC50),A1R (A1R-FlpInCHO cells) [3]; A1R-FlpINCHO cells,significantly enhanced
Nc1nc(-c2cccc3ccccc23)cs1 [compound 12],effect on NECA affinity (pKI),A1R (A1R-FlpInCHO cells) [2],significantly enhanced
same,effect on [3H]DPCPX binding (1 nM),A1R (A1R-FlpInCHO cells) [2],modest but significant decrease
same,allosteric agonism (functional response in the absence of NECA),A1R (A1R-FlpInCHO cells) [3],no significant effect
same,effect on NECA potency (pEC50),A1R (A1R-FlpInCHO cells) [3]; A1R-FlpINCHO cells,significantly enhanced
same,Kb,"[4]; allosteric ternary complex model, n = 4, read-out: allosteric ligand affinity (pKB) (converted)",23.4 µM
same,binding cooperativity with NECA (logα),[4]; [7],0.99 ± 0.25
same,positive cooperativity between PAM and NECA,"[4]; approximate, from logα",~10 fold
same,Kd,"[4]; approximate, from pKB, read-out: affinity for the A1R allosteric site",~25 µM
same,allosteric ligand efficacy (logτB),A1R (A1R-FlpInCHO cells) [5],−0.65 ± 0.12
same,functional cooperativity with NECA (logαβ),A1R (A1R-FlpInCHO cells) [5],0.68 ± 0.10
Cc1ccc(C(=O)c2c(N)sc(C)c2C)cc1 [compound 20],effect on NECA affinity (pKI),A1R (A1R-FlpInCHO cells) [2],significantly enhanced
same,effect on [3H]DPCPX binding (1 nM),A1R (A1R-FlpInCHO cells) [2],modest but significant decrease
same,allosteric agonism (functional response in the absence of NECA),A1R (A1R-FlpInCHO cells) [3],no significant effect
same,effect on NECA potency (pEC50),A1R (A1R-FlpInCHO cells) [3]; A1R-FlpINCHO cells,significantly enhanced
Nc1ccc(Cl)cc1C(=O)c1ccc(F)cc1 [compound 22],effect on NECA affinity (pKI),A1R (A1R-FlpInCHO cells) [2],significantly enhanced
CCCc1sc(N)nc1-c1ccc(C)c2ccccc12 [compound 54],agonism (compound alone),A1R (A1R-FlpInCHO cells) [3]; A1R-FlpINCHO cells,modest functional response
same,binding cooperativity (logα) with NECA,"[4]; WT A1R, Table S2",0.92
same,Kb,"[4]; allosteric ligand affinity (pKB), allosteric ternary complex model, n = 4",7.08 µM
same,binding cooperativity with NECA (logα),[4]; [7],1.15 ± 0.10
same,Kb,"[4]; pKB, WT A1R, mean ± SEM (n), Table S2",5.62 µM
same,allosteric ligand efficacy (logτB),A1R (A1R-FlpInCHO cells) [5],−0.37 ± 0.10
same,functional cooperativity with NECA (logαβ),A1R (A1R-FlpInCHO cells) [5],0.84 ± 015
same,effect of S246^6.47A on affinity or cooperativity,A1R S246^6.47A mutant,did not significantly decrease
same,Kb,"A1R S246^6.47A mutant; […], Table S2",5.13 µM
same,binding cooperativity (logα) with NECA,"A1R S246^6.47A mutant; […], Table S2",1.10
same,effect of G279^7.44A on affinity,A1R G279^7.44A mutant,did not influence
same,effect of G279^7.44A on allosteric cooperativity with the orthosteric agonist,A1R G279^7.44A mutant,significantly decreased
same,Kb,"A1R G279^7.44A mutant; […], Table S2",2140 nM
same,binding cooperativity (logα) with NECA,"A1R G279^7.44A mutant; […], Table S2",-0.05
same,effect on NECA potency,"A2AR; 10 µM compound, A2AR",no significant effect
same,agonism (compound alone),"A2AR; 30 μM, A2AR FlpINCHO cells",no appreciable activity
same,effect on NECA potency,"A2BR; 10 µM compound, A2BR",no significant effect
same,agonism (compound alone),"A2BR; 30 μM, A2BR FlpINCHO cells",no appreciable activity
same,effect on NECA potency,"A3R; 10 µM compound, A3R",no significant effect
same,agonism (compound alone),"A3R; 30 μM, A3R FlpINCHO cells",no appreciable activity
same,effect in FlpINCHO cells expressing the M2 receptor,M2 receptor (M2R),no significant effect
same,effect in nontransfected FlpINCHO cells,[6],no significant effect
